melting point [°C]	Compound
111 to 112	CCCc1c(OCCCOc2ccc(CC(=O)O)cc2Br)ccc(C(C)=O)c1O
148 to 150	CCOC(=O)C(C)(NC(=O)Cc1ccc2ccccc2c1)C(=O)OCC
174	CN(C)C=Nc1sc(C=Nc2ccccc2)c(Cl)c1C#N
220 to 222	CCCC1=C(C(=O)OCC)C(c2cccc(C)c2OC)c2c[nH]nc2N1 (stereo not drawn)
145 to 146	COC(=O)c1cccc2c1Oc1c(cccc1C(=O)OC)N2
102	Cc1cc(-n2ccnc2)c2cccc(OCc3c(Cl)ccc(S(=O)(=O)N4CCC[C@H]4C(=O)NCC4CCN(C(=O)c5ccccc5)CC4)c3Cl)c2n1
188 to 189	O=C(N[C@H](Cc1ccc(C(F)(F)F)cc1)[C@@H](O)c1ccc(Cl)nc1)c1ccc(F)c2ccccc12 (racemic)
134 to 136	C=C(C)C(=O)Nc1nc(CCC)n(Cc2ccc(-c3ccccc3-c3nnn[nH]3)cc2)c1C(=O)OCC
221 to 223	CSc1nn2c(N(C)C)cc(C)nc2c1S(=O)(=O)c1ccc(Cl)cc1
146 to 149	COc1ccc(-c2nc(CNC(=O)NC(C)C)sc2-c2ccc(OC)cc2)cc1
169 to 171	CC(=O)OC1CSC(Oc2cccc(-c3ccncc3Cl)c2)C(OC(C)=O)C1OC(C)=O (stereo not drawn)
173 to 175	O=C(CBr)Nc1c(C(F)(F)F)cc(OCc2ccccc2)cc1C(F)(F)F
240 to 242	COC(=O)c1c(C(=O)OC)c(-c2ccc(OC)cc2)n2c1Cc1cc(OC)ccc1-2
105 to 115	Cc1noc(NS(=O)(=O)c2ccccc2-c2ccc(-c3ncco3)cc2CN2CCN(C)C2=O)c1C
142 to 143	CCCCNC(=O)C(C)n1nnc2ccc(Oc3cc(F)c(C(F)(F)F)c(Cl)c3)cc21 (stereo not drawn)
256 to 257	O=c1[nH]c(=Cc2ccco2)c(=O)[nH]c1=Cc1ccc(OCc2ccccc2)cn1
272 to 274	COc1c(NC(=O)COc2ccccc2)c(C(N)=O)c(OC)c(NC(=O)COc2ccccc2)c1C(N)=O
150 to 151	Cc1cn(N=Cc2cc(C(C)(C)C)c(O)c(C(C)(C)C)c2)cn1
218 to 219	Cc1sc2c(Cl)c(Cl)c(OCC(=O)O)cc2c1C
230 to 232	COC(=O)c1cccc(S(=O)(=O)Cc2c(O)ccc3c2CCCC3=O)c1
215 to 218	COc1cc2c(cc1C(F)(F)F)N(C(=O)Nc1ccc3c(ccn3Cc3ccncc3)c1)CC2

The next lines start with the compound.

Compound	melting point [°C]
O=C1N(N2CCOCC2)c2ccccc2C1(Cc1ccccc1)Cc1ccccc1	179 to 180
O=CNc1ccccc1-c1cc2ccccc2[nH]1	147 to 149
Cc1cnc(N2CCN(c3ccc([N+](=O)[O-])cc3)CC2)n1C	204 to 205
O=C1CCC(c2ccc(Br)cc2)CC1	59.4 to 61.4
O=C1c2nc(O)ccc2C(=O)c2c(-c3ccccc3NC(=O)C(F)(F)F)ccnc21	> 260
ON=Cc1ccncc1	180 to 182
O=C(O)C(Oc1ccccc1)C(=O)NCC1CCN(c2ccncc2)CC1 (stereo not drawn)	84 to 86
O=[N+]([O-])c1ccc2c(c1)SC1=NCCCN12	248
COc1cccc2c1C13CCN(C(=O)C4CC4)C(C2)C1CCC(=O)C3 (stereo not drawn)	144 to 147
Fc1cccc(-c2nc3cnccc3[nH]2)c1	290 to 291
O=C(CCCCC(=O)Oc1ccc(N=Nc2ccccc2)cc1)Oc1ccc(N=Nc2ccccc2)cc1	176 to 177
Clc1ncnc2c1N(C1CC=CC1)CN2	124 to 126
CONC(=O)c1ccccc1SCc1ccccc1	100 to 105
CCCCC1=NC2(CCCC2)C(=O)N1Cc1ccc(-c2ccccc2S(=O)(=O)Nc2onc(C)c2C)c(CN2CCCC2=O)c1	95 to 100
COc1ccc(C2=NN(C3CCN(c4ncccn4)CC3)C(=O)[C@@H]3CC=CC[C@H]23)cc1OC	163 to 166
OC1CC2c3ccccc3CCN2C2CCCCC12 (stereo not drawn)	140 to 142
COc1cc(O)nc(C(C)(C)C)n1	175
